Assay results from paper PMC8509773, “3-Pyridinylidene Derivatives of Chemically Modified Lupane and Ursane Triterpenes as Promising Anticancer Agents by Targeting Apoptosis” (International Journal of Molecular Sciences, 2021).
Marks after values point to notes of the source that are not given here.

What was measured:
Bcl-2 gene = test: rtPCR gene expression in Sk-Mel-28 cells; format: cell-based, human
Bak gene = test: rtPCR gene expression in Sk-Mel-28 cells; format: cell-based, human
Excerpt: (§1) We applied rtPCR techniques in order to investigate the effect of our two compounds on the anti-apoptotic Bcl-XL and Bcl-2 genes as well as the proapoptotic Bak and Bad genes (Table 4). […] Therefore, we may presume that the apoptotic mechanism of both compounds against the A375 cells is not mediated by the tested genes or that alterations in their ratio are the underlying mechanism.

Bcl-XL gene = test: rtPCR gene expression in Sk-Mel-28 cells; format: cell-based, human
Excerpt: as §1

M14 = test: NCI-60 SRB screening (one-dose and five-dose); format: cell-based, human; conditions: 48 h
Procedure, shortened: (§2)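 SRB colorimetric growth assay; cultures exposed to compound for 48 h at a single concentration, values normalised to untreated cells.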

SNB-75 = test: NCI-60 SRB screening (one-dose and five-dose); format: cell-based, human; conditions: 48 h
Procedure, shortened: (§3)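 Growth inhibition is scored with sulforhodamine B after 48 h of continuous compound exposure. An MG_MID averages each parameter over the whole cell panel, insensitive lines being counted at the top tested concentration.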

MALME-3M = test: NCI-60 SRB screening (one-dose and five-dose); format: cell-based, human; conditions: 48 h
Procedure, shortened: (§4)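 After a 48-h incubation with compound, cellular protein was stained with SRB and growth estimated by spectrophotometry relative to untreated controls.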

T-47D = test: NCI-60 SRB screening (one-dose and five-dose); format: cell-based, human; conditions: 48 h
Procedure, shortened: as §3

UO-31 = test: NCI-60 SRB screening (one-dose and five-dose); format: cell-based, human; conditions: 48 h
Procedure, shortened: as §4

UACC-257 = test: NCI-60 SRB screening (one-dose and five-dose); format: cell-based, human; conditions: 48 h
Procedure, shortened: as §4

OVCAR-3 = test: NCI-60 SRB screening (one-dose and five-dose); format: cell-based, human; conditions: 48 h
Procedure, shortened: as §4

OVCAR-8 = test: NCI-60 SRB screening (one-dose and five-dose); format: cell-based, human; conditions: 48 h
Procedure, shortened: as §3

HCT-15 = test: NCI-60 SRB screening (one-dose and five-dose); format: cell-based, human; conditions: 48 h
Procedure, shortened: as §4

A549/ATCC = test: NCI-60 SRB screening (one-dose and five-dose); format: cell-based, human; conditions: 48 h
Procedure, shortened: as §4

HS 578T = test: NCI-60 SRB screening (one-dose and five-dose); format: cell-based, human; conditions: 48 h
Procedure, shortened: as §3

MDA-MB-435 = test: NCI-60 SRB screening (one-dose and five-dose); format: cell-based, human; conditions: 48 h
Procedure, shortened: as §4

RPMI-8226 = test: NCI-60 SRB screening (one-dose and five-dose); format: cell-based, human; conditions: 48 h
Procedure, shortened: as §4

SNB-19 = test: NCI-60 SRB screening (one-dose and five-dose); format: cell-based, human; conditions: 48 h
Procedure, shortened: as §4

U251 = test: NCI-60 SRB screening (one-dose and five-dose); format: cell-based, human; conditions: 48 h
Procedure, shortened: as §2

NCI-H522 = test: NCI-60 SRB screening (one-dose and five-dose); format: cell-based, human; conditions: 48 h
Procedure, shortened: as §2

HCT-116 = test: NCI-60 SRB screening (one-dose and five-dose); format: cell-based, human; conditions: 48 h
Procedure, shortened: as §4

ACHN = test: NCI-60 SRB screening (one-dose and five-dose); format: cell-based, human; conditions: 48 h
Procedure, shortened: as §4

SF-295 = test: NCI-60 SRB screening (one-dose and five-dose); format: cell-based, human; conditions: 48 h
Procedure, shortened: as §4

SK-MEL-28 = test: NCI-60 SRB screening (one-dose and five-dose); format: cell-based, human; conditions: 48 h
Procedure, shortened: as §3

[1] = tested on: NCI-60 cancer cell line panel; test: NCI-60 cancer cell line panel screening (whole panel / subpanels); format: cell-based; conditions: for Selectivity index (SI): full panel MG_MID / subpanel MG_MID
Description: At first, compounds were tested in a single high dose concentration regimen (10 µM) against a panel of sixty various cancer cell lines; the results of the screening are outlined in Table 1 in the form of percent growth (GP %) of treated cells versus untreated cells used as control, where negative numbers indicate cell kill. The experimental results of growth inhibition may range from 0 to 100 and indicate a cytostatic effect while negative values indicate cell death and thus a cytotoxic activity (for NCI data see Supplementary Material Figures S6–S12).
The selectivity index (SI) was calculated by dividing the full panel MG_MID60 (μM) of tested compounds by their individual subpanel MG_MID of the cell line (μM); it correlates directly to the selectivity of their anticancer activity (Table 3). […] By contrast, despite its strong antiproliferative effect, compound 7 acts with low selectivity against the various human tumor cell lines, the highest SI value being 1.73.
Compounds 1, 2, and 4–8 were tested at one dose assay (10^−5 M) toward a panel of approximately sixty cancer cell lines representing different cancer types: leukemia, melanoma, lung, colon, CNS, ovarian, renal, prostate, and breast cancers. Primary anticancer assays were performed according to the NCI protocol as described elsewhere (see, e.g., http://dtp.nci.nih.gov accessed on 16 October 2019). The compounds were added at a single concentration and the cell cultures were incubated for 48 h. The end point determinations were made with a protein binding dye, sulforhodamine B (SRB). The results for each compound are reported as the percent growth (GP %) of treated cells compared to untreated control cells (negative numbers indicate cell kill). Compounds with considerable activity against all tested human tumor cell lines (6 and 7) were selected for the advanced assay against a panel of approximately sixty tumor cell lines at 10-fold dilutions of five concentrations (100 µM, 10 µM, 1 µM, 0.1 µM, and 0.01 µM). The percentage of growth was evaluated spectrophotometrically versus controls not treated with test agents after 48-h exposure and using SRB protein assay to estimate cell viability or growth. Three antitumor activity dose–response parameters were calculated for each cell line: GI50—molar concentration of the compound that inhibits 50% net cell growth; TGI—molar concentration of the compound leading to the total inhibition; and LC50—molar concentration of the compound leading to 50% net cell death (presented in negative logarithm). Furthermore, mean graph midpoints (MG_MID) were calculated for each of the parameters, giving an average activity parameter over all cell lines for the tested compound. For the MG_MID calculation, insensitive cell lines were included with the highest concentration tested.

[2] = Homo sapiens, five dose 0.01–100 μM

SMILES: COC(=O)[C@]12CC[C@@H](C(=O)/C=C/c3cccnc3)[C@@H]1[C@H]1CC[C@@H]3[C@@]4(C)C/C(=C\c5cccnc5)C(=O)C(C)(C)[C@@H]4CC[C@@]3(C)[C@]1(C)CC2 [Compound 7, methyl 2,30-bis-(3-pyridinylidene)-3,20-dioxo-lup-28-oate]
- Bcl-2 gene expression, Mean (Bcl-2 gene): 0.210 *
- Bak gene expression, Mean (Bak gene): 59.543 **
- Bcl-XL gene expression, Mean (Bcl-XL gene): 3.826
- GI50 (M14; Homo sapiens, M14, five dose 0.01–100 μM): 310 nM
- Growth Percent (M14; M14, 10 μM): −80.31%
- GI50 (SNB-75; Homo sapiens, SNB-75, five dose 0.01–100 μM): 1350 nM
- Growth Percent (SNB-75; SNB-75, 10 μM): −98.68%
- Growth Percent (MALME-3M; 10 μM): −95.19%
- GI50 (MALME-3M; [2]): 210 nM
- GI50 (T-47D; Homo sapiens, T47D, T -47D, five dose 0.01–100 μM): 430 nM
- Growth Percent (T-47D; T-47D, 10 μM): −43.57%
- GI50 (UO-31; Homo sapiens, UO-31, five dose 0.01–100 μM): 170 nM
- Growth Percent (UO-31; UO-31, 10 μM): −100.00%
- GI50 (UACC-257; Homo sapiens, UACC-257, five dose 0.01–100 μM): 270 nM
- Growth Percent (UACC-257; UACC-257, 10 μM): −58.90%
- GI50 (OVCAR-3; Homo sapiens, OVCAR-3, five dose 0.01–100 μM): 270 nM
- Growth Percent (OVCAR-3; OVCAR-3, 10 μM): −93.24%
- GI50 (OVCAR-8; Homo sapiens, OVCAR-8, five dose 0.01–100 μM): 340 nM
- Growth Percent (OVCAR-8; OVCAR-8, 10 μM): −34.25%
- Growth Percent (HCT-15; HCT-15, 10 μM): −46.22%
- GI50 (HCT-15; Homo sapiens, HCT-15, five dose 0.01–100 μM): 240 nM
- Growth Percent (A549/ATCC; 10 μM): −9.34%
- GI50 (A549/ATCC; [2]): 390 nM
- Growth Percent (HS 578T; 10 μM): −49.05%
- GI50 (HS 578T; [2]): 460 nM
- GI50 (MDA-MB-435; Homo sapiens, MDA-MB-435, MDA-B-435, five dose 0.01–100 μM): 200 nM
- Growth Percent (MDA-MB-435; MDA-MB-435, 10 μM): −69.71%
- GI50 (RPMI-8226; Homo sapiens, RPMI-8226, five dose 0.01–100 μM): 240 nM
- Growth Percent (RPMI-8226; RPMI-8226, 10 μM): −28.73%
- GI50 (SNB-19; Homo sapiens, SNB-19, five dose 0.01–100 μM): 690 nM
- Growth Percent (SNB-19; SNB-19, 10 μM): −87.62%
- GI50 (U251; Homo sapiens, U-251, U251, five dose 0.01–100 μM): 360 nM
- Growth Percent (U251; U251, 10 μM): −87.90%
- GI50 (NCI-H522; Homo sapiens, NCI-H522, five dose 0.01–100 μM): 660 nM
- Growth Percent (NCI-H522; NCI-H522, 10 μM): −59.72%
- Growth Percent (HCT-116; HCT-116, 10 μM): −87.45%
- GI50 (HCT-116; Homo sapiens, HCT-116, five dose 0.01–100 μM): 200 nM
- Growth Percent (ACHN; 10 μM): −100.00%
- GI50 (ACHN; [2]): 190 nM
- GI50 (SF-295; Homo sapiens, SF-295, five dose 0.01–100 μM): 440 nM
- Growth Percent (SF-295; SF-295, 10 μM): −98.52%
- GI50 (SK-MEL-28; Homo sapiens, SK-MEL-28, five dose 0.01–100 μM): 240 nM
- Growth Percent (SK-MEL-28; SK-MEL-28, 10 μM): −96.28%
- Selectivity index (SI) ([1]; Breast Cancer subpanel): 1.34
- Selectivity index (SI) ([1]; CNS Cancer subpanel): 0.72
- Selectivity index (SI) ([1]; Colon Cancer subpanel): 1.07
- GI50 ([1]; Homo sapiens, five-dose testing, all cell lines, read-out: GI50 values, range over the NCI-60 panel): 180 to 1530 nM
- Selectivity index (SI) ([1]; Leukemia subpanel): 1.73
- Selectivity index (SI) ([1]; Melanoma subpanel): 1.59
- Selectivity index (SI) ([1]; Non-Small Cell Lung Cancer subpanel): 0.65
- Selectivity index (SI) ([1]; Ovarian Cancer subpanel): 0.98
- Selectivity index (SI) ([1]; Prostate Cancer subpanel): 0.50
- Selectivity index (SI) ([1]; Renal Cancer subpanel): 1.23
